Test: AUC in mouse at 300 mg/kg, po
Type: ADME, organism-based
Set-up: dose 300 mg/kg, route oral
Conditions: plasma

AUC: 981 µM·h
Structure (SMILES): CCNC(=O)Nc1nc2cc(-c3cccnc3)c(=O)n(C(C)C)c2s1
